# Positions of bridges follow the written chain, without caps; N, C: chain ends. Residues, ends and D or L forms follow the SMILES beside them.
# How the values were obtained:
# [1] = system: crustaceans, cockroaches, blow fly larvae and Helicoverpa armigera; conditions: in vivo; cited from earlier work
# [2] = system: larvae of Helicoverpa armigera; conditions: Jennings et al, 2005; cited from earlier work
# Plutella xylostella L1 = assay: leaf disc spray test on Brassica chinensis, mortality of Plutella xylostella L1 larvae; assay type: in vivo; conditions: Abbott-corrected
# Method: (§1) Brassica chinensis leaf discs with a 5 cm diameter were cut out and placed in a Petri dish which was prepared with 3 filter paper and 800 μl water. 100 μl of test solution was applied on the lower surface by spraying and dried to air. Next, the leaf was flipped and 100 μl of test solution was applied on the upper surface by spraying and dried to air. The leaf 3 was infested with 10 L1 larvae of Plutella xylostella, after which the dish was closed with a cotton filter and a plastic lid. The Petri dish was placed in a climate chamber at a temperature of 25° C., a relative humidity of 65% and with no artificial light cycle. Four days after infestation 150 μl water was added to the Petri dish. Three Petri dishes were assessed per treatment.
# Cydia pomonella L1 = assay: artificial diet test in 24-well plate, mortality of Cydia pomonella L1 larvae; assay type: in vivo; conditions: 10000 ppm; Table E; Abbott-corrected
# Method: An artificial diet was prepared. 1.5 ml of artificial diet was applied in a well of a 24-well plate followed by 50 μl of test solution by spraying. The well-plate was infested with 1 L1 larva of Cydia pomonella per well, after which the plate was closed with a carton filter and a metal lid. The 24-well plate was placed in a climate chamber at a temperature of 25° C., a relative humidity of 65% and with no artificial light cycle. Five wells (replicates) were assessed per treatment.
# Plutella xylostella L3 = assay: leaf disc spray test on Brassica chinensis, mortality of Plutella xylostella L3 larvae; assay type: in vivo; conditions: Abbott-corrected
# Method: as §1, with “leaf” for “leaf 3”, “L3” for “L1”, “larvae (6-7 days old)” for “larvae”
# Spodoptera littoralis L1 = assay: leaf disc spray test on Gossypium hirsutum, mortality of Spodoptera littoralis L1 larvae; assay type: in vivo; conditions: 10000 ppm, Abbott-corrected
# Method: as §1, with “Gossypium hirsutum” for “Brassica chinensis”, “leaf” for “leaf 3”, “Spodoptera littoralis,” for “Plutella xylostella,”, “cycle. Two days after infestation 200 μl water was added to the Petri dish.” for “cycle.”, “500” for “150”
structure (smiles),measurement,setting,value
"CC(C)[C@H](NC(=O)[C@H](CCCCN)NC(=O)[C@@H]1CCCN1C(=O)CNC(=O)[C@H](CO)NC(=O)[C@@H]1CSSC[C@@H]2NC(=O)[C@@H]3CCCN3C(=O)[C@@H]3CSSC[C@H](NC(=O)CNC(=O)CNC(=O)[C@H](Cc4c[nH]c5ccccc45)NC(=O)[C@H](Cc4ccc(O)cc4)NC2=O)C(=O)N2CCC[C@H]2C(=O)N[C@@H](Cc2c[nH]c4ccccc24)C(=O)NCC(=O)N[C@@H](CCC(N)=O)C(=O)N[C@@H](CC(N)=O)C(=O)N[C@@H](CSSC[C@H](NC(=O)[C@H](CO)NC(=O)[C@@H](N)CCCNC(=N)N)C(=O)N3)C(=O)N[C@@H](Cc2ccc(O)cc2)C(=O)N2CCC[C@H]2C(=O)N[C@@H](CCC(=O)O)C(=O)NCC(=O)N1)C(=O)O [SEQ ID NO: 4 (Av3), Av3]","toxicity to crustaceans, cockroaches, blow fly larvae and Helicoverpa armigera",[1],toxic
"CC[C@H](C)[C@@H]1NC(=O)[C@@H]2CCCN2C(=O)[C@H](Cc2c[nH]c3ccccc23)NC(=O)[C@H]([C@@H](C)O)NC(=O)[C@@H]2CSSC[C@@H]3NC(=O)[C@H]([C@@H](C)O)NC(=O)[C@H](CCC(=O)O)NC(=O)CNC(=O)[C@@H]4CSSC[C@H](NC(=O)CNC(=O)[C@@H]5CCCN5C(=O)[C@H]([C@@H](C)O)NC(=O)[C@H](CC(N)=O)NC(=O)[C@H](CSSC[C@H](NC1=O)C(=O)N[C@@H]([C@@H](C)O)C(=O)N[C@@H](CCCNC(=N)N)C(=O)N[C@@H](CC(=O)O)C(=O)NCC(=O)N[C@@H](CC(C)C)C(=O)N1CCC[C@H]1C(=O)N[C@@H](C(C)C)C(=O)N4)NC(=O)[C@H]([C@@H](C)O)NC(=O)CNC(=O)CNC(=O)[C@H](Cc1ccccc1)NC3=O)C(=O)N[C@@H](CO)C(=O)N2 [SEQ ID NO: 2 (kB2), Kalata B2] (cyclo(CFGGTCNTPGCSCTWPICTRDGLPVCGET); disulfide 1-13, 6-18, 11-26 (inferred); ring closure inferred)",insecticidal activity against the larvae of Helicoverpa armigera,[2],potent insecticidal activity
same,"observed mortality of Plutella xylostella L1, 1 d after infestation","Plutella xylostella L1; 157 ppm, Table B2",0%
same,"observed mortality of Plutella xylostella L1, 2 d after infestation","Plutella xylostella L1; 157 ppm, Table B2",0%
same,"observed mortality of Plutella xylostella L1, 3 d after infestation","Plutella xylostella L1; 157 ppm, Table B2",0%
same,"observed mortality of Plutella xylostella L1, 4 d after infestation","Plutella xylostella L1; 157 ppm, Table B2",0%
same,"observed mortality of Plutella xylostella L1, 7 d after infestation","Plutella xylostella L1; 157 ppm, Table B2",0%
same,"observed mortality of Plutella xylostella L1, 1 d after infestation","Plutella xylostella L1; 625 ppm, Table C",0%
same,"observed mortality of Plutella xylostella L1, 2 d after infestation","Plutella xylostella L1; 625 ppm, Table C",0%
same,"observed mortality of Plutella xylostella L1, 3 d after infestation","Plutella xylostella L1; 625 ppm, Table C",4%
same,"observed mortality of Plutella xylostella L1, 4 d after infestation","Plutella xylostella L1; 625 ppm, Table C",4%
same,"observed mortality of Plutella xylostella L1, 6 d after infestation","Plutella xylostella L1; 625 ppm, Table C",0%
"CC(C)C[C@@H]1NC(=O)CNC(=O)[C@H](CC(N)=O)NC(=O)[C@H](CCCNC(=N)N)NC(=O)[C@H]([C@@H](C)O)NC(=O)[C@@H]2CSSC[C@@H]3NC(=O)[C@H]([C@@H](C)O)NC(=O)CNC(=O)CNC(=O)[C@H](C(C)C)NC(=O)[C@@H]4CSSC[C@H](NC(=O)[C@H]([C@@H](C)O)NC(=O)[C@H](CSSC[C@H](NC(=O)[C@H](C(C)C)NC(=O)[C@@H]5CCCN5C1=O)C(=O)NCC(=O)N[C@@H](CCC(=O)O)C(=O)N[C@@H]([C@@H](C)O)C(=O)N4)NC(=O)CNC(=O)[C@@H]1CCCN1C(=O)[C@H]([C@@H](C)O)NC(=O)[C@H](CC(N)=O)NC3=O)C(=O)N[C@@H](CO)C(=O)N[C@@H](Cc1c[nH]c3ccccc13)C(=O)N1CCC[C@H]1C(=O)N[C@@H](C(C)C)C(=O)N2 [SEQ ID NO: 1 (kB1), Kalata B1]","observed mortality of Cydia pomonella L1, 1 d after infestation",Cydia pomonella L1,20%
same,"observed mortality of Cydia pomonella L1, 2 d after infestation",Cydia pomonella L1,20%
same,"observed mortality of Cydia pomonella L1, 3 d after infestation",Cydia pomonella L1,20%
same,"observed mortality of Cydia pomonella L1, 4 d after infestation",Cydia pomonella L1,20%
same,"observed mortality of Cydia pomonella L1, 7 d after infestation",Cydia pomonella L1,20%
same,insecticidal activity against the larvae of Helicoverpa armigera,[2],potent insecticidal activity
same,"observed mortality of Plutella xylostella L3, 1 d after infestation","Plutella xylostella L3; 2500 ppm, Table D",0%
same,"observed mortality of Plutella xylostella L3, 2 d after infestation","Plutella xylostella L3; 2500 ppm, Table D",0%
same,"observed mortality of Plutella xylostella L3, 3 d after infestation","Plutella xylostella L3; 2500 ppm, Table D",3%
same,"observed mortality of Plutella xylostella L3, 4 d after infestation","Plutella xylostella L3; 2500 ppm, Table D",20%
same,"observed mortality of Plutella xylostella L3, 1 d after infestation","Plutella xylostella L3; 5000 ppm, Table D",0%
same,"observed mortality of Plutella xylostella L3, 2 d after infestation","Plutella xylostella L3; 5000 ppm, Table D",0%
same,"observed mortality of Plutella xylostella L3, 3 d after infestation","Plutella xylostella L3; 5000 ppm, Table D",3%
same,"observed mortality of Plutella xylostella L3, 4 d after infestation","Plutella xylostella L3; 5000 ppm, Table D",37%
same,"observed mortality of Plutella xylostella L3, 1 d after infestation","Plutella xylostella L3; 5000 ppm, Table F",0%
same,"observed mortality of Plutella xylostella L3, 2 d after infestation","Plutella xylostella L3; 5000 ppm, Table F",0%
same,"observed mortality of Plutella xylostella L3, 3 d after infestation","Plutella xylostella L3; 5000 ppm, Table F",22%
same,"observed mortality of Plutella xylostella L1, 1 d after infestation","Plutella xylostella L1; 625 ppm, Table B1",0%
same,"observed mortality of Plutella xylostella L1, 2 d after infestation","Plutella xylostella L1; 625 ppm, Table B1",0%
same,"observed mortality of Plutella xylostella L1, 3 d after infestation","Plutella xylostella L1; 625 ppm, Table B1",3%
same,"observed mortality of Plutella xylostella L1, 4 d after infestation","Plutella xylostella L1; 625 ppm, Table B1",14%
same,"observed mortality of Plutella xylostella L1, 7 d after infestation","Plutella xylostella L1; 625 ppm, Table B1",17%
same,"observed mortality of Plutella xylostella L1, 1 d after infestation","Plutella xylostella L1; 625 ppm, Table C",0%
same,"observed mortality of Plutella xylostella L1, 2 d after infestation","Plutella xylostella L1; 625 ppm, Table C",11%
same,"observed mortality of Plutella xylostella L1, 3 d after infestation","Plutella xylostella L1; 625 ppm, Table C",9%
same,"observed mortality of Plutella xylostella L1, 4 d after infestation","Plutella xylostella L1; 625 ppm, Table C",22%
same,"observed mortality of Plutella xylostella L1, 6 d after infestation","Plutella xylostella L1; 625 ppm, Table C",20%
same,"observed mortality of Spodoptera littoralis L1, 1 d after infestation",Spodoptera littoralis L1; Table A,0%
same,"observed mortality of Spodoptera littoralis L1, 2 d after infestation",Spodoptera littoralis L1; Table A,35%
same,"observed mortality of Spodoptera littoralis L1, 3 d after infestation",Spodoptera littoralis L1; Table A,29%
same,"observed mortality of Spodoptera littoralis L1, 6 d after infestation",Spodoptera littoralis L1; Table A,32%
same,"observed mortality of Spodoptera littoralis L1, 1 d after infestation",Spodoptera littoralis L1; Table G,5%
same,"observed mortality of Spodoptera littoralis L1, 2 d after infestation",Spodoptera littoralis L1; Table G,25%
same,"observed mortality of Spodoptera littoralis L1, 3 d after infestation",Spodoptera littoralis L1; Table G,36%
"CC(C)C[C@@H]1NC(=O)CNC(=O)[C@H](CC(N)=O)NC(=O)[C@H](CCCNC(=N)N)NC(=O)[C@H]([C@@H](C)O)NC(=O)[C@@H]2CSSC[C@@H]3NC(=O)[C@H]([C@@H](C)O)NC(=O)CNC(=O)CNC(=O)[C@H](C(C)C)NC(=O)[C@@H]4CSSC[C@H](NC(=O)[C@H]([C@@H](C)O)NC(=O)[C@H](CSSC[C@H](NC(=O)[C@H](C(C)C)NC(=O)[C@@H]5CCCN5C1=O)C(=O)NCC(=O)N[C@@H](CCC(=O)O)C(=O)N[C@@H]([C@@H](C)O)C(=O)N4)NC(=O)CNC(=O)[C@@H]1CCCN1C(=O)[C@H]([C@@H](C)O)NC(=O)[C@H](CC(N)=O)NC3=O)C(=O)N[C@@H](CO)C(=O)N[C@@H](Cc1c[nH]c3ccccc13)C(=O)N1CCC[C@H]1C(=O)N[C@@H](CCCCN)C(=O)N2 [SEQ ID NO: 6 (kB1[V25K]), Mutated kB1 (kB1[V25K])] (cyclo(CGETCVGGTCNTPGCTCSWPKCTRNGLPV); disulfide 1-15, 5-17, 10-22 (inferred); ring closure inferred)","observed mortality of Plutella xylostella L1, 1 d after infestation","Plutella xylostella L1; 625 ppm, Table C",0%
same,"observed mortality of Plutella xylostella L1, 2 d after infestation","Plutella xylostella L1; 625 ppm, Table C",0%
same,"observed mortality of Plutella xylostella L1, 3 d after infestation","Plutella xylostella L1; 625 ppm, Table C",0%
same,"observed mortality of Plutella xylostella L1, 4 d after infestation","Plutella xylostella L1; 625 ppm, Table C",0%
same,"observed mortality of Plutella xylostella L1, 6 d after infestation","Plutella xylostella L1; 625 ppm, Table C",0%

# — patent US20240049725A1, “CO[…] OTHER IN[…] AND USES THEREOF” (SYNGENTA CROP PROTECTION AG, priority 2020, published 2024)
